Laboratory results taken from patent US20240252502A1, “HDAC6 INHIBITORS FOR TREATMENT OF METABOLIC DISEASE AND HFPEF” (Tenaya Therapeutics, Inc., priority 2021, published 2024).

Test system: HFD/L-NAME mice (HFpEF model)
Assay: HFD/L-NAME HFpEF mouse model, TYA-11018 versus Empagliflozin
Assay type: in vivo
Conditions: 15 mg/kg TYA-11018 or 10 mg/kg Empagliflozin orally once daily for 9 weeks
Protocol: After HFpEF phenotypes were established, mice received 15 mg/kg TYA-11018 or 10 mg/kg Empagliflozin, or vehicle orally once daily for 9 weeks. Health monitoring was performed weekly with body weights recorded. Glucose tolerance test was performed after 1st dose. Cardiac function was recorded by echocardiography after treatment for 9 weeks. End diastolic pressure (EDP) was measured by PV-Loop at terminal at 9 weeks after dosing.
Animals: Cohort of mice with established HFpEF phenotypes and age/sex matched wild type controls were used for dosing study. […] After acclimation for 1 week, one group of mice was fed with high fat diet containing 0.07% L-NAME (LabDiet 5G5V, St Louis, MO) for 15 weeks. The control group of mice were fed with normal chow (LabDiet 5053, St Louis, MO). […] Animals were housed in an animal research facility in accordance with the National Research Council of the National Academies guidelines for the care and use of laboratory animals.
A second group of mice was fed with standard chow for controls.
Transthoracic echocardiography was performed using a VisualSonics Vevo 2100 system equipped with MS400 transducer (Visual Sonics, Toronto, ON). LVEF and other indices of systolic function were obtained from short-axis M-mode scans at the midventricular level, as indicated by the presence of papillary muscles, in conscious, gently restrained mice. […]
Intraperitoneal glucose-tolerance tests were performed by injection of glucose (2 g/kg in saline) after 6 hour fasting (from 7 a.m. to 1 p.m.). Tail blood glucose levels (mg/dL) were measured by AimStrip Plus blood glucose strips used with the AimStrip Plus blood glucose monitoring system (Germaine Laboratories, San Antonio, TX) at 0 (baseline, before glucose dose), 15, 30, 45, 60 and 120 minutes after glucose administration.
The trachea was exposed by a midline incision from the base of the throat to just above the clavicle. […] The hemodynamic parameters were then recorded in close-chest mode. […]

OC[C@H]1O[C@@H](c2ccc(Cl)c(Cc3ccc(O[C@H]4CCOC4)cc3)c2)[C@H](O)[C@@H](O)[C@@H]1O [Empagliflozin, empagliflozin]
E/A: decreased | E/e′ ratio: decreased | end diastolic pressure (PV-Loop): reduced end diastolic pressure
